Experimental data taken from patent US11693017B2, “Small molecule biosensors” (President and Fellows of Harvard College, priority 2015, dated 2023).

Tests used:
[1] = test system: DIG-Cas9 fusion in K562 cell line containing a broken EGFP; test: TF-biosensor-Cas9 assay (EGFP repair); assay type: cell-based, human; settings: 48-hour incubation
Method: Construct integration was carried out as for the Cas9 experiments for EGFP assays, except that the constructs were integrated into K562 containing a broken EGFP reporter construct. Introduction of an engineered nuclease along with a donor oligonucleotide can correct the EGFP and produce fluorescent cells. Upon successful integration (˜10 days after initial transfection), 500,000 cells were nucleofected with 500 ng of guide RNA (sgRNA) and 2 μg of donor oligonucleotide. Nucleofected cells were then collected with 200 μL of media and 50 μL aliquots were added to wells containing 950 μL of media. Each nucleofection was split into four separate wells containing 1 μM of digoxigenin, 25 μM of progesterone, or no small molecule. Forty-eight hours later, cells were analyzed using flow cytometry and the percentage of EGFP positive cells was determined.

[2] = test system: G-DIG1-V-Matα2 biosensor with pUAS::Luc in transgenic Arabidopsis plants; test: TF-biosensor assays in transgenic Arabidopsis plants; assay type: in vivo, Arabidopsis thaliana
Method: Transgenic plants expressing the digoxin biosensor genetic circuit were tested for digoxigenin-induced luciferase expression by placing 14-16 day old plants in liquid MS (-sucrose) media supplemented with 0.1 mM digoxigenin in 24-well plates, and incubated in a growth chamber at 24° C., […] light.
Luciferase expression was measured by imaging plants with a Stanford Photonics XR/MEGA-10 ICCD Camera, after spraying luciferin and dark adapting plants for 30 minutes. Luciferase expression was quantified using Piper Control (v.2.6.17) software. Plants from line KJM58-10 were used to test for specificity of induction by incubating plants, as described above, in 0.1 mM digoxigenin, 0.1 mM digitoxigenin, and 0.02 mM β-estradiol. All chemicals were obtained from Sigma-Aldrich (St. Louis, Mo.).

[3] = test system: LexA-based TF-biosensors with DIG1 and B42; test: Luciferase reporter assay in yeast with LexA-based TF-biosensor; assay type: cell-based, Saccharomyces cerevisiae; settings: reporter promoter containing LexA-binding sites
Method: Yeast strains containing either a plasmid-borne or integrated luciferase reporter were transformed with p16C plasmids encoding TF-biosensors. Transformants were grown in triplicate overnight at 30° C. in SD-ura media containing 2% glucose in sterile glass test tubes on a roller drum. After ˜16 hours of growth, OD600 of each sample was measured and cultures were back diluted to OD600=0.2 in fresh SD-ura media containing steroid dissolved in DMSO or a DMSO control (1% DMSO final). Cultures were grown at 30° C. on roller drum for 8 hrs prior to taking readings. Measurement of luciferase activity was adapted from a previously reported protocol^58. 100 uL of each culture was transferred to a 96-well white NUNC plate. 100 uL of 2 mM D-luciferin in 0.1 M sodium citrate (pH 4.5) was added to each well of the plate and luminescence was measured on a Victor 3V after 5 minutes.

DIG10.3 (DIG0) = settings: cited from earlier work
[4] = test system: degron-G-PRO1-V in HIS3 reporter strain PJ69-4a; test: Yeast spotting (HIS3 growth) assay; assay type: cell-based, Saccharomyces cerevisiae; settings: -his media
Method: Yeast strain PJ69-4a transformed with p16C plasmids containing degron G-DIG-V variants were first inoculated from colonies into SD-ura media and grown at 30° C. overnight (16 h). 1 mL of each culture was pelleted by centrifugation (3000 rcf, 2 min), resuspended in 1 mL of fresh SD-ura and the OD660 was measured. Each culture was then diluted in SD-ura media to an OD660=0.2 and incubated at 30° C. for 4-6 hrs. 1 mL of each culture was pelleted and resuspended in sterile, distilled water and the OD660 measured again. Each transformant was then diluted to an OD660=0.1. Four 1/10 serial dilutions of each culture were prepared in sterile water (for a total of 5 solutions). 10 μL of each dilution was spotted in series onto several SD-ura-his agar plates containing 1 mM 3-aminotriazole and the indicated steroid.

PRO0 = settings: cited from earlier work

With `C[C@]12CC[C@H](O)C[C@H]1CC[C@@H]1[C@@H]2C[C@@H](O)[C@]2(C)[C@@H](C3=CC(=O)OC3)CC[C@]12O` [digoxigenin] the “increase in GFP positive cells relative to the mock control” value [1] was ~18 fold and the “induction of luciferase activity compared to the uninduced control” value ([2]; after 42 hours, T1 transgenic plants) was 30-50 fold.

In the case of `C[C@H]1O[C@@H](O[C@H]2[C@@H](O)C[C@H](O[C@H]3[C@@H](O)C[C@H](O[C@H]4CC[C@@]5(C)[C@H](CC[C@@H]6[C@@H]5C[C@@H](O)[C@]5(C)[C@@H](C7=CC(=O)OC7)CC[C@]65O)C4)O[C@@H]3C)O[C@@H]2C)C[C@H](O)[C@@H]1O` [digoxin], the “activation in the presence of digoxin” value [3] is listed as ~40 fold, the “induction of the biosensor” value ([2]; transgenic Arabidopsis plants) is listed as “capable of inducing” and the “affinity of binding to DIG10.3 (DIG0)” value (DIG10.3 (DIG0)) is listed as “picomolar”.

In the case of `CC(=O)[C@H]1CC[C@H]2[C@@H]3CC=C4C[C@@H](O)CC[C@]4(C)[C@H]3CC[C@]12C` [pregnenolone], the “growth of histidine auxotrophic reporter strain” value [4] is reported as “not”.

For `CC(=O)[C@H]1CC[C@H]2[C@@H]3CCC4=CC(=O)CC[C@]4(C)[C@H]3CC[C@]12C` [progesterone], the “growth of histidine auxotrophic reporter strain” value [4] is given as “stimulated” and the “affinity of binding to PRO0” value (PRO0) is given as “nanomolar”.
